Values joined by “and” are separate entries in the source; they are usually repeats but may differ in a detail not shown here. Equal entries are not always repeated.
Test system: NCI-H1876 complex spheroid viability
Experiment: Anticancer human tumor NCI-H1876 cell line growth inhibition [LSD1];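 note: spheroids exposed to compounds for one week before readout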;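 for viability, T/C: 100% = DMSO vehicle-treated spheroids so lower means fewer viable cells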
Details: for viability, T/C: stronger effect = lower value
Method in brief: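 Complex spheroids of tumor cells with HUVEC and human MSCs, exposed to iadademstat combined with other agents. Each agent tested in half-log steps from near clinical Cmax (else 10 microM top), DMSO ≤0.25%.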

[1] = curve of first compound, second compound 0.1 µM
[2] = curve of first compound, second compound 0.316 µM
[3] = curve of first compound, second compound 1 µM
[4] = curve of first compound, second compound 3.16 µM
[5] = curve of first compound, second compound 10 µM
[6] = second compound 0.1 µM, first compound 0.0316 µM
[7] = second compound 0.1 µM, first compound 0.1 µM
[8] = second compound 0.1 µM, first compound 0.316 µM
[9] = second compound 0.1 µM, first compound 1 µM
[10] = second compound 0.1 µM, first compound 3.16 µM
[11] = second compound 0.1 µM, first compound 10 µM
[12] = second compound 0.316 µM, first compound 0.0316 µM
[13] = second compound 0.316 µM, first compound 0.1 µM
[14] = second compound 0.316 µM, first compound 0.316 µM
[15] = second compound 0.316 µM, first compound 1 µM
[16] = second compound 0.316 µM, first compound 3.16 µM
[17] = second compound 0.316 µM, first compound 10 µM
[18] = second compound 1 µM, first compound 0.0316 µM
[19] = second compound 1 µM, first compound 0.1 µM
[20] = second compound 1 µM, first compound 0.316 µM
[21] = second compound 1 µM, first compound 1 µM
[22] = second compound 1 µM, first compound 3.16 µM
[23] = second compound 1 µM, first compound 10 µM
[24] = second compound 3.16 µM, first compound 0.0316 µM
[25] = second compound 3.16 µM, first compound 0.1 µM
[26] = second compound 3.16 µM, first compound 0.316 µM
[27] = second compound 3.16 µM, first compound 1 µM
[28] = second compound 3.16 µM, first compound 3.16 µM
[29] = second compound 3.16 µM, first compound 10 µM
[30] = second compound 10 µM, first compound 0.0316 µM
[31] = second compound 10 µM, first compound 0.1 µM
[32] = second compound 10 µM, first compound 0.316 µM
[33] = second compound 10 µM, first compound 1 µM
[34] = second compound 10 µM, first compound 3.16 µM
[35] = second compound 10 µM, first compound 10 µM
[36] = second compound 0.1 µM, first compound 0.000949 µM
[37] = second compound 0.1 µM, first compound 0.003 µM
[38] = second compound 0.1 µM, first compound 0.00949 µM
[39] = second compound 0.1 µM, first compound 0.03 µM
[40] = second compound 0.1 µM, first compound 0.0949 µM
[41] = second compound 0.1 µM, first compound 0.3 µM
[42] = second compound 0.316 µM, first compound 0.000949 µM
[43] = second compound 0.316 µM, first compound 0.003 µM
[44] = second compound 0.316 µM, first compound 0.00949 µM
[45] = second compound 0.316 µM, first compound 0.03 µM
[46] = second compound 0.316 µM, first compound 0.0949 µM
[47] = second compound 0.316 µM, first compound 0.3 µM
[48] = second compound 1 µM, first compound 0.000949 µM
[49] = second compound 1 µM, first compound 0.003 µM
[50] = second compound 1 µM, first compound 0.00949 µM
[51] = second compound 1 µM, first compound 0.03 µM
[52] = second compound 1 µM, first compound 0.0949 µM
[53] = second compound 1 µM, first compound 0.3 µM
[54] = second compound 3.16 µM, first compound 0.000949 µM
[55] = second compound 3.16 µM, first compound 0.003 µM
[56] = second compound 3.16 µM, first compound 0.00949 µM
[57] = second compound 3.16 µM, first compound 0.03 µM
[58] = second compound 3.16 µM, first compound 0.0949 µM
[59] = second compound 3.16 µM, first compound 0.3 µM
[60] = second compound 10 µM, first compound 0.000949 µM
[61] = second compound 10 µM, first compound 0.003 µM
[62] = second compound 10 µM, first compound 0.00949 µM
[63] = second compound 10 µM, first compound 0.03 µM
[64] = second compound 10 µM, first compound 0.0949 µM
[65] = second compound 10 µM, first compound 0.3 µM

COc1ccc([C@@H](O)c2cc(-c3ncnc4cc(N5CCOCC5)ccc34)c(F)cc2Cl)nn1
viability, T/C (compound 0.0316 µM): 93.6% and 98%
viability, T/C (compound 0.1 µM): 101% and 97.7%
viability, T/C (compound 0.316 µM): 91.2% and 85.7%
viability, T/C (compound 1 µM): 84.5% and 68.1%
viability, T/C (compound 3.16 µM): 59.4% and 41.1%
viability, T/C (compound 10 µM): 25.1% and 10.8%
IC50 (curve of compound): 4.34 µM and 2.15 µM

CC1COCCN1c1cc(C2(S(C)(=N)=O)CC2)nc(-c2ccnc3[nH]ccc23)n1 (stereo unspecified) + NC1CC1c1ccc(-c2cccc(O)c2)cc1
IC50 [1]: 6.86 µM
IC50 [2]: 6.54 µM
IC50 [3]: 6.88 µM
IC50 [4]: 6.24 µM
IC50 [5]: 5.61 µM
viability, T/C [6]: 110%
viability, T/C [7]: 114%
viability, T/C [8]: 112%
viability, T/C [9]: 111%
viability, T/C [10]: 94.4%
viability, T/C [11]: 28.4%
viability, T/C [12]: 119%
viability, T/C [13]: 111%
viability, T/C [14]: 113%
viability, T/C [15]: 118%
viability, T/C [16]: 88.5%
viability, T/C [17]: 27.5%
viability, T/C [18]: 124%
viability, T/C [19]: 119%
viability, T/C [20]: 118%
viability, T/C [21]: 111%
viability, T/C [22]: 96.1%
viability, T/C [23]: 28%
viability, T/C [24]: 114%
viability, T/C [25]: 126%
viability, T/C [26]: 120%
viability, T/C [27]: 111%
viability, T/C [28]: 78.4%
viability, T/C [29]: 30.3%
viability, T/C [30]: 112%
viability, T/C [31]: 112%
viability, T/C [32]: 114%
viability, T/C [33]: 99.8%
viability, T/C [34]: 70.8%
viability, T/C [35]: 29.4%

Nc1ccccc1NC(=O)c1ccc(CNC(=O)OCc2cccnc2)cc1
viability, T/C (compound 0.00949 µM): 103% and 93.5%
viability, T/C (compound 0.03 µM): 97.7% and 77.7%
viability, T/C (compound 0.0949 µM): 79.1% and 44.3%
viability, T/C (compound 0.3 µM): 24.9% and 14%
viability, T/C (compound 0.949 µM): 10.3% and 4.22%
viability, T/C (compound 3 µM): 8.9% and 0.64%
IC50 (curve of compound): 0.176 µM and 0.0773 µM

COc1ccc([C@@H](O)c2cc(-c3ncnc4cc(N5CCOCC5)ccc34)c(F)cc2Cl)nn1 + NC1CC1c1ccc(-c2cccc(O)c2)cc1
IC50 [1]: 1.87 µM
IC50 [2]: 1.89 µM
IC50 [3]: 1.73 µM
IC50 [4]: 1.1 µM
IC50 [5]: 0.546 µM
viability, T/C [6]: 89.6%
viability, T/C [7]: 91.2%
viability, T/C [8]: 87.8%
viability, T/C [9]: 67.8%
viability, T/C [10]: 34.7%
viability, T/C [11]: 9.23%
viability, T/C [12]: 92.5%
viability, T/C [13]: 93.1%
viability, T/C [14]: 86.1%
viability, T/C [15]: 71%
viability, T/C [16]: 33.3%
viability, T/C [17]: 9.61%
viability, T/C [18]: 103%
viability, T/C [19]: 102%
viability, T/C [20]: 88.5%
viability, T/C [21]: 67.5%
viability, T/C [22]: 31.3%
viability, T/C [23]: 9%
viability, T/C [24]: 93.9%
viability, T/C [25]: 91.3%
viability, T/C [26]: 79.3%
viability, T/C [27]: 50%
viability, T/C [28]: 26%
viability, T/C [29]: 6.12%
viability, T/C [30]: 90.3%
viability, T/C [31]: 83.2%
viability, T/C [32]: 58.6%
viability, T/C [33]: 38%
viability, T/C [34]: 17.8%
viability, T/C [35]: 2.16%

Nc1ccn(C2OC(CO)C(O)C2(F)F)c(=O)n1 (stereo unspecified) + NC1CCC(NC2CC2c2ccccc2)CC1
IC50 [1]: 0.00689 µM
IC50 [2]: 0.00669 µM
IC50 [3]: 0.00677 µM
IC50 [4]: 0.00675 µM
IC50 [5]: 0.00625 µM
viability, T/C [36]: 111%
viability, T/C [37]: 101%
viability, T/C [38]: 30.3%
viability, T/C [39]: 22.3%
viability, T/C [40]: 22.9%
viability, T/C [41]: 10.8%
viability, T/C [42]: 104%
viability, T/C [43]: 96%
viability, T/C [44]: 29.7%
viability, T/C [45]: 18.1%
viability, T/C [46]: 11.7%
viability, T/C [47]: 9.66%
viability, T/C [48]: 111%
viability, T/C [49]: 96.7%
viability, T/C [50]: 30.3%
viability, T/C [51]: 18.6%
viability, T/C [52]: 12.1%
viability, T/C [53]: 11.3%
viability, T/C [54]: 110%
viability, T/C [55]: 107%
viability, T/C [56]: 26.2%
viability, T/C [57]: 23.2%
viability, T/C [58]: 17.9%
viability, T/C [59]: 9.56%
viability, T/C [60]: 109%
viability, T/C [61]: 90.8%
viability, T/C [62]: 26.4%
viability, T/C [63]: 23.5%
viability, T/C [64]: 17.8%
viability, T/C [65]: 10.5%

O=C(C=Cn1cnc(-c2cc(C(F)(F)F)cc(C(F)(F)F)c2)n1)NNc1cnccn1
viability, T/C (compound 0.00316 µM): 99.2% and 92.7%
viability, T/C (compound 0.01 µM): 91% and 89.3%
viability, T/C (compound 0.0316 µM): 84.4% and 80%
viability, T/C (compound 0.1 µM): 47.8% and 42%
viability, T/C (compound 0.316 µM): 23.1% and 16.6%
viability, T/C (compound 1 µM): 16.3% and 9.98%
IC50 (curve of compound): 0.0949 µM and 0.0791 µM

CC1COCCN1c1cc(-c2ccnn2C)c2ccnc(-c3ccn[nH]3)c2n1 (stereo unspecified) + NC1CC1c1ccc(-c2cccc(O)c2)cc1
IC50 [1]: 0.00389 µM
IC50 [2]: 0.00377 µM
IC50 [3]: 0.00413 µM
IC50 [4]: < 0.00316 µM
IC50 [5]: < 0.00316 µM
viability, T/C (second compound 0.1 µM, first compound 0.00316 µM): 51.9%
viability, T/C (second compound 0.1 µM, first compound 0.01 µM): 41.5%
viability, T/C [6]: 16.5%
viability, T/C [7]: 4.97%
viability, T/C [8]: 3.26%
viability, T/C [9]: 3.75%
viability, T/C (second compound 0.316 µM, first compound 0.00316 µM): 51.6%
viability, T/C (second compound 0.316 µM, first compound 0.01 µM): 41.4%
viability, T/C [12]: 17.6%
viability, T/C [13]: 4.99%
viability, T/C [14]: 3.15%
viability, T/C [15]: 3.99%
viability, T/C (second compound 1 µM, first compound 0.00316 µM): 51.9%
viability, T/C (second compound 1 µM, first compound 0.01 µM): 43.7%
viability, T/C [18]: 19.2%
viability, T/C [19]: 5.94%
viability, T/C [20]: 3.81%
viability, T/C [21]: 4.68%
viability, T/C (second compound 3.16 µM, first compound 0.00316 µM): 43%
viability, T/C (second compound 3.16 µM, first compound 0.01 µM): 39.5%
viability, T/C [24]: 18.3%
viability, T/C [25]: 5.67%
viability, T/C [26]: 3.74%
viability, T/C [27]: 4.48%
viability, T/C (second compound 10 µM, first compound 0.00316 µM): 37.5%
viability, T/C (second compound 10 µM, first compound 0.01 µM): 31.5%
viability, T/C [30]: 16.8%
viability, T/C [31]: 6.91%
viability, T/C [32]: 4.75%
viability, T/C [33]: 5.76%

Nc1ncn(C2CC(O)C(CO)S2)c(=O)n1 (stereo unspecified) + NC1CCC(NC2CC2c2ccccc2)CC1
IC50 [1]: > 0.3 µM
IC50 [2]: > 0.3 µM
IC50 [3]: > 0.3 µM
IC50 [4]: > 0.3 µM
IC50 [5]: > 0.3 µM
viability, T/C [36]: 106%
viability, T/C [37]: 100%
viability, T/C [38]: 92.6%
viability, T/C [39]: 87.9%
viability, T/C [40]: 84.5%
viability, T/C [41]: 70.7%
viability, T/C [42]: 105%
viability, T/C [43]: 113%
viability, T/C [44]: 98.5%
viability, T/C [45]: 99.2%
viability, T/C [46]: 85.7%
viability, T/C [47]: 67.8%
viability, T/C [48]: 109%
viability, T/C [49]: 117%
viability, T/C [50]: 99.2%
viability, T/C [51]: 93.4%
viability, T/C [52]: 85.2%
viability, T/C [53]: 64.1%
viability, T/C [54]: 119%
viability, T/C [55]: 113%
viability, T/C [56]: 105%
viability, T/C [57]: 91.5%
viability, T/C [58]: 81.3%
viability, T/C [59]: 63.2%
viability, T/C [60]: 118%
viability, T/C [61]: 108%
viability, T/C [62]: 98.8%
viability, T/C [63]: 96.9%
viability, T/C [64]: 81.1%
viability, T/C [65]: 57%
